Assay results from article PMC5378956, “Inhibition of delta-secretase improves cognitive functions in mouse models of Alzheimer's disease” (Nature Communications, 2017).

Columns and labels:
cathepsin-S = target: T1, cathepsin-S (Homo sapiens, UniProt P25774); assay: IC50 assay with recombinant cathepsin-S; assay type: biochemical; conditions: mean±s.d.
T1 construct: purchased Athens Research and Technology (Athens, GA)
Procedure: Cathepsin-S – 100 nM enzyme was pre-incubated with inhibitor in assay buffer (100 mM NaH2PO4 pH 6.5, 100 mM NaCl) for 10 min at 37 °C. The reaction was initiated on addition of 25 μM substrate (Boc-Val-Leu-Lys-AMC (Bachem).
(§1) To determine the IC50 values of the compounds towards δ-secretase, cathepsin-S, cathepsin-L, caspase-3 and caspase-8, purified recombinant enzyme was incubated in appropriate assay buffers in the presence of increasing concentrations of inhibitors. The formation of fluorescent product was monitored in duplicate reactions and the data were fit to appropriate equations to calculate the IC50 values.

caspase-8 = target: T2, caspase-8 (Homo sapiens, UniProt Q14790); assay: IC50 assay with recombinant caspase-8; assay type: biochemical; conditions: for IC50: mean±s.d.
T2 construct: purchased Millipore (Billerica, MA)
Procedure: Caspase-3 and 8 – The enzyme was pre-incubated with inhibitor in assay buffer (100 mM HEPES pH 7.4, 0.1% CHAPS, 10% Sucrose) for 10 min at 37 °C.
as §1

[1] = BBB-PAMPA permeability assay; assay type: in vitro ADME; conditions: for Papp at 18 h: PAMPA, read-out: effective permeability Pe; for Papp at 18 h / effective permeability Pe: porcine brain lipid, 18 h
Procedure: Supplementary Table 3: Caco-2 permeability and BBB-PAMPA permeability […]
For CaCo-2 permeability assay, cells were incubated with 10 µM of these reagents in buffers for 2 h, and the receiver side buffer is removed for analysis by LC/MS/MS. Efflux […]
For BBB-PAMPA permeability assay, the filter membrane was coated with 4 µl of a 20 mg ml-1 porcine brain lipid in dodecane. 200 µl of the compound solution was added to the donor well. The acceptor well was filled with 200 µl of transport buffer. The acceptor filter plate was carefully placed on to the donor plate to create […]
a sandwich. […] Samples of the donor and acceptor wells were analyzed by LC/MS/MS and the effective permeability (Pe) was calculated.
LLOQ: Lower Limit of Quantification; Papp: apparent permeability.

[2] = Liver microsomal stability, human; conditions: Human microsomes, 30 min, 37 °C
Procedure: (§2) Supplementary Table 4: Liver microsomal stability
(§3) Compound Species Mean Remaining Parent Mean Remaining Parent
(§4) (with NADPH) (NADPH-free)
(§5) The test agents were incubated in duplicate with microsomes at 37 °C for 30 min. The reaction contained microsomal protein in 100 mM potassium phosphate, 2 mM NADPH, 3 mM MgCl2, pH 7.4. A control was run for each test agent omitting NADPH to detect NADPH-free degradation. Data are reported as % remaining of parent compound. ND, Peak not detected due to bioanalysis issue (poor ionization).

[3] = Liver microsomal stability, mouse; conditions: Mouse microsomes, 30 min, 37 °C
Procedure: as §2, §3, §4, §5

CYP3A4 = CYP3A4 (Homo sapiens, UniProt P08684); assay: CYP inhibition screening in microsomes; conditions: pH 7.4, probe midazolam
CYP3A = assay: CYP inhibition screening in microsomes; conditions: human
CYP2D6 = CYP2D6 (Homo sapiens, UniProt P10635); assay: CYP inhibition screening in microsomes; conditions: pH 7.4
CYP2C19 = CYP2C19 (Homo sapiens, UniProt P33261); assay: CYP inhibition screening in microsomes; conditions: pH 7.4
CYP1A2 = target: T3, CYP1A2 (Homo sapiens, UniProt P05177); assay: CYP inhibition screening in microsomes; conditions: pH 7.4
T3 sequence (P05177 1-516): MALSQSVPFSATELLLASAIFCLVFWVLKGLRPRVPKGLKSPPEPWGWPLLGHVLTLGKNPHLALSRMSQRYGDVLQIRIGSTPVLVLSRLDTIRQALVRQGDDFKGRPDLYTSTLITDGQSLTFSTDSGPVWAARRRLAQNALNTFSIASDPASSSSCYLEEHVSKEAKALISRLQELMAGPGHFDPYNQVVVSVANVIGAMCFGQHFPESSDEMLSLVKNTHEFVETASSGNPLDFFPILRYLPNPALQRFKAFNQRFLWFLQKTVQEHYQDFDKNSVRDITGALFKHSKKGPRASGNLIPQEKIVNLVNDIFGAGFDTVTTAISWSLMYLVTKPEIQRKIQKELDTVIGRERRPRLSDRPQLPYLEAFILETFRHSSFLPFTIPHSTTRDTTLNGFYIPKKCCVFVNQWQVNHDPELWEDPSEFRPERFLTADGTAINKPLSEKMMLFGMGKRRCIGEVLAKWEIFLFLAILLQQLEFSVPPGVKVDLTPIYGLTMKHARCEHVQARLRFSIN

[4] = target: T4, δ-secretase in Pala cells (Homo sapiens, UniProt Q99538); assay: δ-secretase inhibition in intact Pala cells
T4 sequence (Q99538 18-433): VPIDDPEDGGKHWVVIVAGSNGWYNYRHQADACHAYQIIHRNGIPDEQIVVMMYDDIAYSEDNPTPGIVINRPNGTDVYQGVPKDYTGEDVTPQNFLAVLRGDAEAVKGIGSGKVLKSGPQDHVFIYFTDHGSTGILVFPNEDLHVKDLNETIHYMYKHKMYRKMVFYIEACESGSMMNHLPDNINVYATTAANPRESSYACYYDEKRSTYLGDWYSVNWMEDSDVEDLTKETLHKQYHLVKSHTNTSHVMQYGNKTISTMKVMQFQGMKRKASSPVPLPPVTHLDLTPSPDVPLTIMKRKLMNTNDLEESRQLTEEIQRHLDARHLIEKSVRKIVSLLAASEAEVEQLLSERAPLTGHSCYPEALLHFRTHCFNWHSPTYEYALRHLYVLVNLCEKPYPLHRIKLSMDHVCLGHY
Procedure: Cells were collected, washed twice with PBS and lysed in Lysis Buffer (20 mM citric acid, 60 mM disodium hydrogen orthophosphate, 1 mM EDTA, 0.1% CHAPS, pH 5.8). […] Data were analysed with GraFit version 5.0.11 software package.
δ-secretaseactivity assay.

T2 sequence (Q14790 217-374 limits assumed, species assumed): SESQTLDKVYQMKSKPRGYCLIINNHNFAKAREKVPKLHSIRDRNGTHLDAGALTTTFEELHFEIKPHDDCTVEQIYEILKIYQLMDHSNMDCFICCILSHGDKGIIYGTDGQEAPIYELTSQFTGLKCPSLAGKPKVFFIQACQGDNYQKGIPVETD
T2 sequence (Q14790 385-479 limits assumed, species assumed): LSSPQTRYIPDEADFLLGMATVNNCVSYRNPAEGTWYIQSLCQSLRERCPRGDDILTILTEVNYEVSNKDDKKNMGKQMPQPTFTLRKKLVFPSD
T1 sequence (P25774 115-331, species assumed): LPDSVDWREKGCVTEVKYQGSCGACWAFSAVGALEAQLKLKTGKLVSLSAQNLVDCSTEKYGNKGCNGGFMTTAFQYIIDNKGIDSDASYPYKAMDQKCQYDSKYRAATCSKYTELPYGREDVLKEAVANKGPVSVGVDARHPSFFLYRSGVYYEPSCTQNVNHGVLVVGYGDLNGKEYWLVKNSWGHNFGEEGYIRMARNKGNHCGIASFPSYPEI
CYP3A4, sequence (P08684 whole entry): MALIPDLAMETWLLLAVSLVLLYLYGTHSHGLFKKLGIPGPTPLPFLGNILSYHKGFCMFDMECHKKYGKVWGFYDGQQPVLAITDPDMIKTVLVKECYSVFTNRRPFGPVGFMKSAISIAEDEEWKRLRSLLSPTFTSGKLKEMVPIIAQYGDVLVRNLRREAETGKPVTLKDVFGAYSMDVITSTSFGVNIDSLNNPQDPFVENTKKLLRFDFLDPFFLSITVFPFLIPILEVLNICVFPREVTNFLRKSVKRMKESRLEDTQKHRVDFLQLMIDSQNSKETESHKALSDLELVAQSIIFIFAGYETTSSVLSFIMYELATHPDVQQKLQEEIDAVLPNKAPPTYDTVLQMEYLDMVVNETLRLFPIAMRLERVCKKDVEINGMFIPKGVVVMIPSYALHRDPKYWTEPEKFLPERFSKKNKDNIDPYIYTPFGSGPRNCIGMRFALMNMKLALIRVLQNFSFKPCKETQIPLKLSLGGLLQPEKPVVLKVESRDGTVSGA
CYP2D6, sequence (P10635 whole entry): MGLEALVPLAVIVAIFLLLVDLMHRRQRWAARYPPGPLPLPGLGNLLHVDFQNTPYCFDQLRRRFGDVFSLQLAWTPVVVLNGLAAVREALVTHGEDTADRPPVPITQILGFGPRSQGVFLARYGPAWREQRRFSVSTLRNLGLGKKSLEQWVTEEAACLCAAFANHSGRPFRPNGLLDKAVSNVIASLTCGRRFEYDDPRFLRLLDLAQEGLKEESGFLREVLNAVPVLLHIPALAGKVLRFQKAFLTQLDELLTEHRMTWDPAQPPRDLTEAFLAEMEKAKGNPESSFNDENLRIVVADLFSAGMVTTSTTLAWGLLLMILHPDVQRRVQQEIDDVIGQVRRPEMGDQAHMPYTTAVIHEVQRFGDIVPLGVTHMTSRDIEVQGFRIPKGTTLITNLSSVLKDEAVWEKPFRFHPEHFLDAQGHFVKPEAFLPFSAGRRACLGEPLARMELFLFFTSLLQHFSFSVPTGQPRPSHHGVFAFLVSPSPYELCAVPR
CYP2C19, sequence (P33261 whole entry): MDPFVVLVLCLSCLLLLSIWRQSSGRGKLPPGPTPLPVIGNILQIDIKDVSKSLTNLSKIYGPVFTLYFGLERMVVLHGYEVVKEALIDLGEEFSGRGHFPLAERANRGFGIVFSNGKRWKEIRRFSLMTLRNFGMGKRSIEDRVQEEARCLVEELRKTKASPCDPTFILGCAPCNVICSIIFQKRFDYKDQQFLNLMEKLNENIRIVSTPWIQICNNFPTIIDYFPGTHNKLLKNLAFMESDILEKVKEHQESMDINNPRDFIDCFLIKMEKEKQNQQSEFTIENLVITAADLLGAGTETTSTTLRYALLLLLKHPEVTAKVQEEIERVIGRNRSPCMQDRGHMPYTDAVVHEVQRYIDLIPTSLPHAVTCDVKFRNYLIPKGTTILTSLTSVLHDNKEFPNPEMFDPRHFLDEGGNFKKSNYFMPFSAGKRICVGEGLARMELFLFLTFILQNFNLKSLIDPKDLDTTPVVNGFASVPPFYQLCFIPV

Row | IC50 (cathepsin-S) [µM] | IC50 (caspase-8) [µM] | BBB-PAMPA permeability / BBB penetration in words [1] | Mean Remaining Parent (NADPH-free) [2] [%] | Mean Remaining Parent (with NADPH) [2] [%] | Mean Remaining Parent (NADPH-free) [3] [%] | Mean Remaining Parent (with NADPH) [3] [%] | inhibition at 10 min, 3 µM (CYP3A4) [%] | inhibition at 10 min, 10 µM (CYP3A4) [%] | inhibition at 10 min, 3 µM (CYP2D6) [%] | inhibition at 10 min, 10 µM (CYP2D6) [%] | inhibition at 10 min, 3 µM (CYP2C19) [%] | inhibition at 10 min, 10 µM (CYP2C19) [%] | inhibition at 10 min, 3 µM (CYP1A2) [%] | inhibition at 10 min, 10 µM (CYP1A2) [%] | effective permeability Pe [1] | inhibition at 10 min, 3 µM (CYP3A; pH 7.4, probe testosterone) [%] | inhibition at 10 min, 10 µM (CYP3A; pH 7.4, probe testosterone) [%] | IC50 [4] [µM] | Structure (SMILES) | Papp at 18 h [1] [×10⁻⁶ cm/s] | other results
1 | > 200 | > 200 |  | 1 | 1 | 0 | 1 | -2.5 | -2.5 | 2.9 | -2.6 | 13.4 | 29.4 | 28.4 | 44.5 | < LLOQ | 14.2 | 27.6 | 0.43 ± 0.21 | Cc1cccc(NCc2ccc(O)c3ncccc23)c1C [compound 12] |  | 
2 | > 100 | > 100 | barely penetrate the BBB | 75 | 12 | 86 | 16 | -0.9 | 18.1 | 9.9 | 1.4 | 37.7 | 55.7 | 13.5 | 10.3 | < LLOQ | 2.5 | 0.7 | 0.67 ± 0.4 | COc1ccc(N2CCN(C(c3ccc(N(C)C)cc3)c3nnnn3C(C)(C)C)CC2)cc1 (stereo not drawn) [compound 31] |  | 
3 | > 200 | 76.1 ± 8.12 | barely penetrate the BBB | 107 | 88 | 99 | 98 | 7.3 | 10.4 | -5.4 | 0.9 | -12 | 9.5 | -7.6 | 10.5 |  | -6 | 2.4 | 0.11 ± 0.05 | Cn1c(=O)[nH]c(=O)c2c1nc(S)n2CC(O)COc1ccc(Cl)cc1 (stereo not drawn) [compound 38] | 0.007 | selectivity for δ-secretase compared to caspase-8 (caspase-8): at least 80 fold

Row | Structure (SMILES) | IC50 (cathepsin-S) [µM] | IC50 (caspase-8) [µM] | BBB-PAMPA permeability / BBB penetration in words [1] | Mean Remaining Parent (NADPH-free) [2] [%] | Mean Remaining Parent (with NADPH) [2] [%] | Mean Remaining Parent (NADPH-free) [3] [%] | Mean Remaining Parent (with NADPH) [3] [%] | inhibition at 10 min, 3 µM (CYP3A4) [%] | inhibition at 10 min, 10 µM (CYP3A4) [%] | inhibition at 10 min, 3 µM (CYP2D6) [%] | inhibition at 10 min, 10 µM (CYP2D6) [%] | inhibition at 10 min, 3 µM (CYP2C19) [%] | inhibition at 10 min, 10 µM (CYP2C19) [%] | inhibition at 10 min, 3 µM (CYP1A2) [%] | inhibition at 10 min, 10 µM (CYP1A2) [%] | effective permeability Pe [1] | inhibition at 10 min, 3 µM (CYP3A; pH 7.4, probe testosterone) [%] | inhibition at 10 min, 10 µM (CYP3A; pH 7.4, probe testosterone) [%] | IC50 [4] [µM] | Papp at 18 h [1] [×10⁻⁶ cm/s] | other results
4 | Nc1ccc(N2CCOCC2)c2nonc12 [compound 11, 7-(morpholin-4-yl)-2,1,3-benzoxadiazol-4-amine] | > 200 | 86.7 ± 10.3 | detected at high-levels | 93 | 76 | 103 | 20 | 3.6 | 8 | 7.8 | 21.9 | 4.4 | 6.8 | 13.1 | 37 |  |  |  |  | > 25 | inhibition at 10 min, 3 µM (CYP3A; pH 7.4): 4.1%; inhibition at 10 min, 10 µM (CYP3A; pH 7.4): 21.6%
